The text below walks through data of US8309552B2, “Immunomodulating heterocyclic compounds” (Medigene AG, priority 2003, dated 2012).

The target in test [1] is T1, Biotinylated human CD80 (hCD80-BT) (Homo sapiens, UniProt P33681).
T1 construct: biotin (biotinylated)
T1 sequence (P33681 35-242 limits assumed): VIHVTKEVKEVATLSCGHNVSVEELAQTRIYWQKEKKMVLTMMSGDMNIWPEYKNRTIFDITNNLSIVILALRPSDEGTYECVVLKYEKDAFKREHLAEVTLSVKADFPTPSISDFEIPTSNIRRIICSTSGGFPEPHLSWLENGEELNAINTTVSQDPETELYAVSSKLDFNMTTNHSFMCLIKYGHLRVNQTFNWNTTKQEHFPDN
Put plainly: BIAcore biomolecular interaction analysis, binding to immobilised hCD80-BT. Conditions: BIAcore S51, immobilised hCD80-BT. More on the design: off-rate on CD80: unit not given here. From the text:
The Use of BIAcore Biomolecular Interaction Analysis
Biotinylated human CD80 (hCD80-BT) is a recombinant soluble form of a membrane bound receptor molecule (CD80) which binds to CD28 to initiate T cell activation. The interaction between CD80 and CD28 has been extensively investigated (Collins et al, 2002). Biotinlyated human HLA-A2-tax is the recombinant soluble form of a membrane bound receptor molecule that has been used in this example as a control protein, and is not expected to interact with the compounds.
The BIAcore S51™ system was used for screening the compounds of Examples 1-4 above. A series S sensor chip CM5 was docked onto the BIAcore S51™. Streptavidin was coupled to the carboxymethyl surface using standard amine coupling. The chip surface was activated with 0.2M EDC/0.05M NHS, followed by binding of streptavidin (0.25 mg/ml in 10 mM sodium acetate pH 5.0) and saturation of unoccupied sites with […].
The BIAcore S51 sensor chip has two separate sensor spots for immobilisation of proteins. hCD80-BT was immobilised on the streptavidin-coated surface of one sensor spot until a response of approximately 3000 RU was observed. A protein to control for non-specific binding of the compound was immobilised on a second sensor spot. The control protein used for these experiments was a biotinylated, soluble form of the human HLA protein.
Dilution series of compounds (1000 nM-0.05 nM) were prepared in running buffer (10 mM, pH 7.4, 150 mM NaCl, 0.005% P20; 5% DMSO).
BIAcore S51™ was run at a flow rate of 30 μl/min using running buffer. Compounds and DMSO standard solutions for correction of data for solvent effects were injected. Data were recorded automatically and were analysed using BIAcore S51 Evaluation software.

In test [2] the test system is production of Interleukin-2 (IL-2) by Human Jurkat T Cells. Put plainly: Inhibition of production of interleukin-2 (IL-2) by human Jurkat T cells (Raji/Jurkat co-culture, anti-CD3, IL-2 ELISA). It counts as cell-based. To be noted: for inhibition at 10 µM: Compound Concentration 10 μM, read-out: Percentage Inhibition (relative to DMSO = 0%). The protocol:
• Collins A V et al. (2002) Immunity 17, 201-210 “The interaction properties of costimulatory molecules revisited” Inhibition of Production of Interleukin-2 (IL-2) by Human Jurkat T Cells. Method
Human Raji cells were dispensed at a concentration of 2×10^5 cells per well in RPMI-1640 medium supplemented with 10% fetal calf serum, 1% penicillin/streptomycin, 1% glutamine (RPMI medium) in a 96-well round bottom microtitre plate. Compounds under investigation (dissolved in 100% DMSO) were diluted to eight-fold the desired final concentration in RPMI medium and added to the required final concentration for a total volume of 200 μl per well. After 20 minutes incubation at 37° C., Jurkat T cells were added at a concentration of 2×10^5 cells per well. Monoclonal antibody to CD3 (UCHT1, R&D Systems) was added to the cultures at a final concentration of 1 μg per ml, and where indicated, monoclonal antibody to CD28 (CD28.2, BD-Pharmingen) was also added at a concentration of 2.5 μg per ml. Cells were cultured at 37° C. for 5 hours, after which the plates were centrifuged and the supernatants harvested for IL-2 ELISA assay using the IL-2 Eli-pair kit (DIACLONE Research, Besancon, France) according to the manufacturers instructions.

In the next test the target is T2, CD80-CD28 interaction (Homo sapiens, UniProt P33681).
T2 sequence (P33681 35-242 limits assumed): T1 sequence (P33681 35-242 limits assumed)
Put plainly: Homogenous Time Resolved Fluorescence (HTRF) assay, cell free. The class given is binding. Conditions: 4 hours at room temperature. The procedure, abridged: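 Europium and APC labels were linked through antibodies to CD28 and CD80 fusion proteins. Compounds were tested at 100 μM-1.7 nM for 4 h at room temperature in 50 mM Tris-HCl, 150 mM NaCl pH7.8, 0.1% BSA. Emission read at 665 and 615 nm (excitation 340 nm); non-specific signal measured with C215 Fab in place of CD80; EC50 reported in bands.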

Test [3] deals with T1, Biotinylated human CD80 (hCD80-BT). Conditions: CD80/CD28 interaction, cited from earlier work.
The mark [4] stands for this setting: inhibition of the CD80-CD28 interaction, read-out: EC50 activity in the HTRF assay.
Where [5] appears, read: cell free HTRF assay, concentration series 100 μM-1.7 nM, read-out: Activity (EC50 in the HTRF assay).
The mark [6] stands for this setting: cell-free HTRF, concentration series 100 μM-1.7 nM, read-out: Activity (EC50 in the HTRF assay).

Read-outs that look alike come from different tables or passages of the source.

As to `CN(C)CCCNC(=O)c1ccc(-n2[nH]c3c(nnc4ccccc43)c2=O)cc1` [Example 2, N-[(dimethylamino)propyl]-4-(3-oxo-1,3-dihydro-2H-pyrazolo[4,3-c]cinnolin-2-yl)benzamide], in test [1], the dissociation constant (Kd) is less than 0.1 µM and the “off-rate on CD80” value is reported as 2×10^−2. Besides, the inhibition at 30 µM in test [2] (at 30 μM, read-out: inhibition of IL-2 production) amounted to 65%. Besides, the EC50 on CD80-CD28 interaction (setting [4]) is less than 1 µM.

With `O=C(NCc1ccccc1)c1ccc(-n2[nH]c3c(nnc4ccccc43)c2=O)cc1` [Example 3, N-benzyl-4-(3-oxo-1,3-dihydro-2H-pyrazolo[4,3-c]cinnolin-2-yl)benzamide], in test [1], the equilibrium dissociation constant (Kd) is less than 0.1 µM and the “off-rate on CD80” value was 2×10^−2. For the same compound, on CD80-CD28 interaction (setting [4]), the half-maximal effective concentration (EC50) was less than 1 µM.

Take `O=C(NCCCNC1CCCCC1)c1ccc(-n2[nH]c3c(nnc4ccccc43)c2=O)cc1` [Example 4, N-[(cyclohexylamino)propyl]-4-(3-oxo-1,3-dihydro-2H-pyrazolo[4,3-c]cinnolin-2-yl)benzamide]: in test [1], the equilibrium dissociation constant (Kd) was less than 0.1 µM and the “off-rate on CD80” value is 2×10^−2. The concentration giving a half-maximal response (EC50) at CD80-CD28 interaction (setting [4]) was less than 1 µM.

`O=C(NCCCCN1CCCC1)c1ccc(-n2[nH]c3c(nnc4c(F)cccc43)c2=O)cc1` [Example 6, 4-(6-fluoro-3-oxo-1,3-dihydro-2H-pyrazolo[4,3-c]cinnolin-2-yl)-N-(pyrrolidin-1-yl-butyl)benzamide]: in test [1], the Kd was less than 0.1 µM and the “off-rate on CD80” value is given as 2×10^−2. Also, the EC50 at CD80-CD28 interaction (setting [4]) was less than 1 µM.

`CN1C(C)(C)CC(NC(=O)c2ccc(-n3[nH]c4c(nnc5c(F)cccc54)c3=O)cc2)CC1(C)C` [Example 7, 4-(6-fluoro-3-oxo-1,3-dihydro-2H-pyrazolo[4,3-c]cinnolin-2-yl)-n-(1,2,2,6,6-pentamethylpiperidine-4-yl)benzamide]: in test [1], the equilibrium dissociation constant (Kd) was less than 0.1 µM and the “off-rate on CD80” value is given as 2×10^−2. Also, on CD80-CD28 interaction (setting [4]), the concentration for a half-maximal effect (EC50) is less than 1 µM.

As to `O=C(NCC(F)F)c1ccc(-n2[nH]c3c(nnc4c(F)cccc43)c2=O)cc1` [Example 376], the inhibition at 10 µM in test [2] was determined as 56.7%. The 50% effective concentration (EC50) at CD80-CD28 interaction (setting [5]) was less than 1 µM.

For the compound `O=C(NCCCNC1CCCCC1)c1ccc(-n2[nH]c3c(nnc4c(F)ccc(F)c43)c2=O)cc1` [Example 429], the inhibition at 10 µM in test [2] was determined as 58.8%. Further, on CD80-CD28 interaction (setting [5]), the concentration for a half-maximal effect (EC50) is less than 1 µM.

On to `CCCNCCCNC(=O)c1ccc(-n2[nH]c3c(nnc4c(F)cccc43)c2=O)cc1` [Example 442], for which the inhibition at 10 µM in test [2] came out at 58.9%. Further, on CD80-CD28 interaction (setting [6]), the concentration for a half-maximal effect (EC50) is less than 1 µM.

With `CCN1CCC(NC(=O)c2ccc(-n3[nH]c4c(nnc5c(F)cccc54)c3=O)cc2)CC1` [Example 453], the inhibition at 10 µM in test [2] is 55.7%. Further, on CD80-CD28 interaction (setting [6]), the 50% effective concentration (EC50) is less than 1 µM.

Consider `CN(C)C1CCC(NC(=O)c2ccc(-n3[nH]c4c(nnc5c(F)cccc54)c3=O)cc2)CC1` (centres unmarked) [Example 472], for which, in test [2], the inhibition at 10 µM was determined as 58.4%. The EC50 at CD80-CD28 interaction (setting [6]) was less than 1 µM.

`CN(CCCCNC(=O)c1ccc(-n2[nH]c3c(nnc4c(F)cccc43)c2=O)cc1)C(C)(C)C` [Example 478]: the inhibition at 10 µM in test [2] stood at 56%. Further, the EC50 at CD80-CD28 interaction (setting [6]) was less than 1 µM.

Turning to `N#CCNC(=O)c1ccc(-n2[nH]c3c(nnc4c(F)cccc43)c2=O)cc1` [Example 482], the inhibition at 10 µM in test [2] was 39.2%. Besides, the concentration giving a half-maximal response (EC50) at CD80-CD28 interaction (setting [6]) is less than 1 µM.

As for “CD28: "the endogenous protein ligand (CD28)" of CD80; "CD28 on T-cells"”, in test [3], the “off-rate of CD80 interaction with endogenous protein ligand” value was “greater than 0.2 s^−1”. Moreover, the Kd in test [3] (read-out: KD of CD80 interaction with endogenous protein ligand) was 4.75 µM.
